Assay results from paper PMC10587169, “Tuning aminopolycarboxylate chelators for efficient complexation of trivalent actinides” (Scientific Reports, 2023).
“Also recorded” adds a separate entry of the source.

How the values were obtained:
[1] = Solubility in aqueous electrolyte media (observation); format: physicochemical
[2] = Potentiometric complexometric titration; format: binding; details: for logβ101 (ML), Nd / logβ111 (MHL), Nd / logK111, Dy / logK111, Eu / logK111, Ho / logK111, La / logK111, Lu / logK111, Nd / logK111, Tb / logβ101 (ML), Dy / logβ101 (ML), Eu / logβ101 (ML), Ho / logβ101 (ML), La / logβ101 (ML), Lu / logβ101 (ML), Tb / logβ111 (MHL), Dy / logβ111 (MHL), Eu / logβ111 (MHL), Ho / logβ111 (MHL), La / logβ111 (MHL), Lu / logβ111 (MHL), Tb: potentiometry, I = 2.0 M (Na+/H+)ClO4, T = 20.0 °C; for logK111, Dy / logK111, Eu / logK111, Ho / logK111, La / logK111, Lu / logK111, Nd / logK111, Tb / logβ101 (ML), Dy / logβ101 (ML), Eu / logβ101 (ML), Ho / logβ101 (ML), La / logβ101 (ML), Lu / logβ101 (ML), Tb / logβ111 (MHL), Dy / logβ111 (MHL), Eu / logβ111 (MHL), Ho / logβ111 (MHL), La / logβ111 (MHL), Lu / logβ111 (MHL), Tb: ±3σ
Protocol: All potentiometric titrations were run using a Mettler Toledo T90 autotitrator equipped with an Orion Ross Semi-micro glass electrode with the junction stabilization solution changed to 5.0 M NaCl to prevent precipitation with perchlorate media. All titrations were performed under a hydrated nitrogen atmosphere. The forward titration measurements (acidic titrand, basic titrant) of H4octapa in nitrate electrolyte medium were performed as described previously due to the limited solubility of this ligand in a 2 M (Na^+/H^+)ClO4 medium. Acid dissociation constants of H4octapa in perchlorate electrolyte medium were also determined by titrating in reverse (basic titrand, acidic titrant) to alleviate the solubility concerns. Titrations of H4pypa-peg were performed in reduced-volume glass titration cups (10 mL nominal) due to the limited supply of this ligand. All potentiometric titrations were run in triplicate. The choice of using p[H^+] was explained in Heathman et al.[15], and the calibration of the p[H^+] scale utilized Gran analysis through titration of a strong acid with the base used in the potentiometric titrations[29]–[31]. Potentiometric titration data was modeled and analyzed using Hyperquad2013 to determine acid dissociation and metal complexation stability constants[32],[33].
The coordination of La^3+, Nd^3+, Eu^3+, Tb^3+, Dy^3+, Ho^3+, and Lu^3+ with H4octapa and H4pypa-peg was studied. Figures 4A, B show the potentiometric curves collected when Nd^3+ was titrated with H4octapa and H4pypa-peg, respectively. Both p[H^+] curves show the characteristic buffering region due to deprotonation of metal–ligand complexes when titrated with base. The experimental p[H^+] trend is best represented when considering the presence of MHL(aq) and ML^– complexes as generalized by Eqs. (4) and (5). The progressive formation of the metal complexes throughout the titration is illustrated by species distribution curves, also shown in Figs. 4A, B. The complex formation equilibria are described by the conditional stability constants, β101 and β111, listed in Table 3.

[3] = Competitive complexation liquid-liquid extraction with HDEHP; format: binding; details: competitive solvent extractions, T = 20 ± 1 °C, ±3σ
Protocol: Stability constants for the coordination of Eu^3+, Am^3+, Cm^3+, and Cf^3+ were also achieved by monitoring the suppression of liquid–liquid partitioning of the radiotracer due to the increasing presence of an aqueous complexant. Aqueous solutions were prepared containing sub-millimolar amounts of ligand while maintaining p[H^+] at 1.7, 1.8, 1.9, 2.0, and 2.1. Ionic strength was maintained at 2.00 M using sodium perchlorate. Aqueous complexation was balanced with the appropriate choice of HDEHP concentration in octane to allow accurate quantification of metal distribution. Non-aqueous phases were pre-equilibrated three times with 2.00 M NaClO4 at the corresponding p[H^+]. Preliminary time-dependent studies indicated the phase transfer equilibrium was attained for all measurements with H4octapa and H4pypa-peg (Figures S2 and S3 in the SI). For the mixtures traced with radioisotopes, the activity was measured using gamma spectroscopy (ORTEC GEM50P4 coaxial HPGe detector, DSPEC gamma spectrometer) for ^154Eu (123.07 keV), ^243Am (74.66 keV), and ^249Cf (388.17 keV) and liquid scintillation counting (Perkin Elmer Tri-Carb 3180 TR/SL) for ^248Cm. The ratio of radioisotope activity in the organic and aqueous phases defined the liquid–liquid distribution.
Liquid–liquid partitioning of trivalent f-elements was monitored in presence of H4octapa and H4pypa-peg using a strong liquid cation exchanger, bis–(2-ethylhexyl)phosphoric acid, HDEHP. This competitive solvent extraction methodology was used to determine the conditional stability constants for complexation of Eu^3+, Am^3+, Cm^3+, and Cf^3+ with H4octapa and H4pypa-peg. The metals, present at radiotracer concentrations ([…]), distributed between an organic phase containing HDEHP in n-octane and an aqueous phase containing the complexant at varying concentrations and aqueous acidity. The interpretation of the competitive complexation liquid–liquid distribution data (SI Tables S3 through S5 for H4octapa and S6 through S8 for H4pypa-peg) considered two complex formation equilibria as described by Eqs. (4) and (5). All collected distribution data indicated the average ligand-to-metal stoichiometry of 1.00 ± 0.04 for H4octapa and 1.00 ± 0.03 for H4pypa-peg (see SI Figures S10A and S11A). The partitioning of a trivalent metal ion as facilitated by a dimerized HDEHP cation exchanger can be expressed by Eq. (6) as quantified by the extraction constant, Kex (subscript org refers to organic-soluble species).6 M^3++3HDEHP2,org⇆MHDEHP23,org+3H^+Kex=MHDEHP23,orgH^+^3/M^3+HDEHP2,org^3
The stoichiometry for the extraction of trivalent metal ion by HDEHP was verified at 2.85 ± 0.03 by slope analysis study using ^249Cf^3+ as representative ion for H4octapa (SI Figure S10B) and 2.78 ± 0.13 for H4pypa-peg (SI Figure S11B). […]

## O=C(O)CN(Cc1cc(-c2cn(CCOCCOCCO)nn2)cc(CN(CC(=O)O)Cc2cccc(C(=O)O)n2)n1)Cc1cccc(C(=O)O)n1 [H4pypa-peg, 6,6'-((((4-(1-(2-(2-(2-hydroxyethoxy)ethoxy)ethyl)-1H-1,2,3-triazol-4-yl)pyridine-2,6-diyl)bis–(methylene))bis–((carboxymethyl)azanediyl))bis–(methylene)) dipicolinic acid]
[1]; moderately acidic aqueous electrolyte mixtures
  aqueous solubility compared to unfunctionalized H4pypa: significantly improved aqueous solubility
[2]
  logβ101 (ML), Nd: 18.20 (2)
  logβ111 (MHL), Nd: 20.43 (2)
  logK111, Dy: 1.97 (2)
  logK111, Eu: 1.96 (1)
  logK111, Ho: 1.80 (4)
  logK111, La: 2.32 (1)
  logK111, Lu: 1.87 (5)
  logK111, Nd: 2.22 (2)
  logK111, Tb: 2.02 (2)
  logβ101 (ML), Dy: 20.05 (1)
  logβ101 (ML), Eu: 18.91 (1)
  logβ101 (ML), Ho: 20.50 (4)
  logβ101 (ML), La: 17.86 (1)
  logβ101 (ML), Lu: 20.72 (5)
  logβ101 (ML), Tb: 19.75 (2)
  logβ111 (MHL), Dy: 22.03 (2)
  logβ111 (MHL), Eu: 20.87 (1)
  logβ111 (MHL), Ho: 22.31 (4)
  logβ111 (MHL), La: 20.18 (1)
  logβ111 (MHL), Lu: 22.60 (5)
  logβ111 (MHL), Tb: 21.77 (2)
[3]; I = 2.00 M sodium perchlorate
  logβ101 (ML), Cf3+: 21.0 (4)^^
  logβ111 (MHL), Cf3+: 23.2 (2)^^
[3]
  logK111, Cf3+: 2.2 (1)^^

## O=C(O)CN(CCN(CC(=O)O)Cc1cccc(C(=O)O)n1)Cc1cccc(C(=O)O)n1 [H4octapa, 6,6′-((ethane-1,2-diylbis–((carboxymethyl)azanediyl))bis–(methylene))dipicolinic acid]
[1]; aqueous sodium perchlorate electrolyte medium, 2 M (Na+/H+)ClO4
  solubility in high ionic strength perchlorate media: limited; also recorded: Low solubility
[2]
  logβ101 (ML), Nd: 18.19 (1)
  logβ111 (MHL), Nd: 19.92 (2) –
  logK111, Dy: 1.28 (2)
  logK111, Eu: 1.13 (4)
  logK111, Ho: 0.53 (2)
  logK111, La: 1.53 (4)
  logK111, Lu: 1.69 (4)
  logK111, Nd: 1.73 (2) –
  logK111, Tb: 1.04 (7)
  logβ101 (ML), Dy: 18.48 (2)
  logβ101 (ML), Eu: 18.49 (2)
  logβ101 (ML), Ho: 18.57 (2)
  logβ101 (ML), La: 17.77 (2)
  logβ101 (ML), Lu: 17.97 (3)
  logβ101 (ML), Tb: 18.55 (2)
  logβ111 (MHL), Dy: 19.76 (1)
  logβ111 (MHL), Eu: 19.62 (4)
  logβ111 (MHL), Ho: 19.10 (1)
  logβ111 (MHL), La: 19.30 (4)
  logβ111 (MHL), Lu: 19.66 (4)
  logβ111 (MHL), Tb: 19.59 (7)
[3]; I = 2.00 M sodium perchlorate
  logβ101 (ML), Cf3+: 20.6 (2)^^

## O=C(O)CN(CCN(CCN(CC(=O)O)CC(=O)O)CC(=O)O)CCN(CC(=O)O)CC(=O)O [H6ttha, triethylenetetraamine-N,N,N',N'',N''',N'''-hexaacetic acid]
[2]; determined using potentiometry, I = 2.0 M (Na+/H+)ClO4 at 20.0 °C
  logβ121 (MH2L), Nd3+: 27.74(3)
[2]
  logβ101 (ML), Nd: 21.78(2)
  logβ111 (MHL), Nd: 25.42(2)
